Patent publication US8729047B2, “Compositions for inhibiting redox-sensitive GTPases” (Board of Regents, The University of Texas System, priority 2010, dated 2014)

Tests used:
[1] = system: SW480 cells; test: QCM Cell Invasion Assay, time-dependent motility; type: cell-based, human; details: 6-TG in combination with a NO donor for 3 days; FIG. 14B
Experimental: (§1) FIG. 14. Determination of cell invasiveness in the presence and absence of thiopurines and/or redox agents.
(§2) The Colorimetric-based QCM Cell Invasion Assay kit (Millipore, Billerica, Mass.) was used for the time-dependent cell migration assay of SUM149, SW480, and HCCLM3 cells. Serum-free sample cells (2×10^5 cells/mL) were prepared as indicated in the section of the matrigel invasion assay. The serum-free sample cells (0.25 mL) were loaded to the rehydrated upper chamber. […] Serum-free or serum-containing media (0.5 mL) was added to the lower chamber. The plate covered was then incubated for one to four days at 37° C. in a 10% CO2 incubator. […] The fraction of cells migrated from the upper chamber to the lower chamber was then measured colorimetrically according to the procedure provided by the manufacture.

[2] = system: HCCLM3 cells; test: QCM Cell Invasion Assay, time-dependent motility; type: cell-based, human; details: 6-TG in combination with a NO donor for 3 days; FIG. 14B
Experimental: as §1, §2

[3] = target: RhoC (Homo sapiens, UniProt P08134); test: Co-IP mass spectrometry of thioguanine nucleotide disulfide adduct; type: cell-based; set-up: endogenous in cells; host or cells: SUM149, SUM102, SW480, HCCLM3 (endogenous); HME-RhoC (transfected with wild type RhoC)
Experimental: FIG. 6. Detection of unusual 6-TGNP adduct from HME-RhoC cells. […] A monoclonal RhoC antibody (Biocompare, South San Francisco, Calif.) and a “Mammalian Co-Immunoprecipitation Kit” (Pierce) were used for the analyses of the RhoC 6-TGNP interaction in HME-RhoC cells. The immunoprecipitated RhoC sample was suspended in 50% methanol:0.1% formic acid. The protein portion and RhoC-released nucleotide were separated by a brief centrifugation (3000×g for 5 min). The protein portion from the immunoprecipitated RhoC was resuspended in the assay buffer (pH 7.5), digested with trypsin for 10 h, and analyzed with MALDI-TOF tandem mass spectrometry. The MALDI-TOF peak at 1476.6 Da represents peptide-6-TGDP adduct; TC^20LLIVFSK-6-TGDP (SEQ ID NO:4).
FIG. 15. Detection of unusual 6-TGNP adduct from SUM and HME-RhoC cells. The ESI-MS and MS/MS methods to detect and identify a chemically modified RhoC residue are described elsewhere herein. […] The left and right columns, respectively, denote any of the RhoC samples taken from SUM and HME cells. As indicated, a mixture of samples taken from untreated SUM149 and SUM102 cells was used as a control for the experiment shown in the left column. For the right column, a mixture of samples taken from HME-RhoC and […] cells was used as a control. (B) A MS/MS analysis was performed with the ESI-MS sample of 6-TG-treated SUM149 cells to identify a biomolecule that have a mass of 1481.6 Da. […]
Cell lysates in an extraction buffer were incubated with a monoclonal anti-RhoC antibody precoupled to glutathione-agarose beads. […] The protein portion from the immunoprecipitated RhoC was resuspended in a buffer containing 1 mM EDTA and 0.1 mM DTPA in 50 mM TrisHCl (pH 7.4), then digested with trypsin for 10 h, and analyzed with electrospray mass spectrometry (ESI-MS) and tandem mass spectrometry (MS/MS) in the positive ion mode ([molecular mass+H]^+).

Sequence of RhoC (P08134 whole entry): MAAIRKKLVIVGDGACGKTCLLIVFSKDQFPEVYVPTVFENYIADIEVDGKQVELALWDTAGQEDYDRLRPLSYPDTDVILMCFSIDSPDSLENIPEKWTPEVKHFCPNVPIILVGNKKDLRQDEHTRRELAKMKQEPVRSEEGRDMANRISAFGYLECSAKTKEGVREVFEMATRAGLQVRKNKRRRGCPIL

- peak assigned to RhoC-6-TGDP adduct ([3]; 6-TG in the presence of a NO donor): increased
- RhoC-derived peptide-6-TGDP disulfide adduct mass peak by ESI-MS ([3]; co-IPed RhoC from SUM149 and HME-RhoC cells treated with 6-TG, FIG. 15A): commonly exhibited
Compound: Nc1nc2nc[nH]c2c(=S)[nH]1 [6-TG, 6-thioguanine]
- most of the invasive motility [1]: terminated
- most of the invasive motility [2]: terminated
- peptide-6-TGDP adduct (TC20LLIVFSK-6-TGDP) by MALDI-TOF ([3]; HME-RhoC cells, 6-TG 1 μM every 48 h, 5 days, FIG. 6): detected
